Measured values as given in PMC7265341, “Quantifying CDK inhibitor selectivity in live cells” (Nature Communications, 2020).
Read-outs that look alike come from different tables or passages of the source.

What was measured:
CDK11B/Cyclin L2 = CDK11B/Cyclin L2 (Homo sapiens, UniProt P21127); experiment: NanoBRET live-cell target engagement, CDK11B-NanoLuc/Cyclin L2 in HEK-293; type: binding; conditions: CDK11b/L2, 10µM
CDK13/Cyclin K = CDK13/Cyclin K (Homo sapiens, UniProt Q14004); experiment: NanoBRET live-cell target engagement, CDK13-NanoLuc/Cyclin K in HEK-293; type: binding; conditions: CDK13/K, 10µM
CDK10/Cyclin L2 = CDK10/Cyclin L2 (Homo sapiens, UniProt Q15131); experiment: NanoBRET live-cell target engagement, CDK10-NanoLuc/Cyclin L2 in HEK-293; conditions: 10µM
CDK8/Cyclin C = CDK8/Cyclin C (Homo sapiens, UniProt P49336); experiment: NanoBRET live-cell target engagement, NanoLuc-CDK8/Cyclin C in HEK-293; type: binding
CDK16/Cyclin Y = CDK16/Cyclin Y (Homo sapiens, UniProt Q00536); experiment: NanoBRET live-cell target engagement, CDK16-NanoLuc/Cyclin Y in HEK-293; type: binding; conditions: CDK16/Y
CDK1/Cyclin E1 = CDK1/Cyclin E1 (Homo sapiens, UniProt P06493); experiment: NanoBRET live-cell target engagement, CDK1-NanoLuc/Cyclin E1 in HEK-293; type: binding; conditions: CDK1/E1
CDK9/Cyclin K = CDK9/Cyclin K (Homo sapiens, UniProt P50750); experiment: NanoBRET live-cell target engagement, NanoLuc-CDK9/Cyclin K in HEK-293; type: binding; conditions: CDK9/K, 10µM
CDK3/Cyclin E1 = CDK3/Cyclin E1 (Homo sapiens, UniProt Q00526); experiment: NanoBRET live-cell target engagement, CDK3-NanoLuc/Cyclin E1 in HEK-293; type: binding
CDK2/Cyclin E1 = CDK2/Cyclin E1 (Homo sapiens, UniProt P24941); experiment: NanoBRET live-cell target engagement, CDK2-NanoLuc/Cyclin E1 in HEK-293; type: binding; conditions: CDK2/E1
CDK14/Cyclin Y = CDK14/Cyclin Y (Homo sapiens, UniProt O94921); experiment: NanoBRET live-cell target engagement, CDK14-NanoLuc/Cyclin Y in HEK-293; type: binding; conditions: CDK14/Y
CDK15/Cyclin Y = CDK15/Cyclin Y (Homo sapiens, UniProt Q96Q40); experiment: NanoBRET live-cell target engagement, NanoLuc-CDK15/Cyclin Y in HEK-293; type: binding; conditions: CDK15/Y, 10µM
CDK20/Cyclin H = CDK20/Cyclin H (Homo sapiens, UniProt Q8IZL9); experiment: NanoBRET live-cell target engagement, NanoLuc-CDK20/Cyclin H in HEK-293; type: binding; conditions: CDK20/H, 10µM
CDK5/CDK5R1 = CDK5/CDK5R1 (Homo sapiens, UniProt Q00535); experiment: NanoBRET live-cell target engagement, CDK5-NanoLuc/CDK5R1 in HEK-293; type: binding; conditions: CDK5/CDK5R1, 10µM
CDK17/Cyclin Y = CDK17/Cyclin Y (Homo sapiens, UniProt Q00537); experiment: NanoBRET live-cell target engagement, CDK17-NanoLuc/Cyclin Y in HEK-293; type: binding; conditions: CDK17/Y, 10µM
CDK12/Cyclin K = CDK12/Cyclin K (Homo sapiens, UniProt Q9NYV4); experiment: NanoBRET live-cell target engagement, CDK12-NanoLuc/Cyclin K in HEK-293; type: binding; conditions: CDK12/K, 10µM
CDK4/Cyclin D1 = CDK4/Cyclin D1 (Homo sapiens, UniProt P11802); experiment: NanoBRET live-cell target engagement, NanoLuc-CDK4/Cyclin D1 in HEK-293; type: binding; conditions: CDK4/D1, 10µM
CDK7 = CDK7 (Homo sapiens, UniProt P50613); experiment: NanoBRET live-cell target engagement, NanoLuc-CDK7 in HEK-293; type: binding; conditions: CDK7
CDK19/Cyclin C = CDK19/Cyclin C (Homo sapiens, UniProt Q9BWU1); experiment: NanoBRET live-cell target engagement, NanoLuc-CDK19/Cyclin C in HEK-293
CDK11A/Cyclin L2 = target: T1, CDK11A/Cyclin L2 (Homo sapiens, UniProt Q9UQ88); experiment: NanoBRET live-cell target engagement, CDK11A-NanoLuc/Cyclin L2 in HEK-293; type: binding; conditions: CDK11a/L2, 10µM
T1 sequence (Q9UQ88 1-783): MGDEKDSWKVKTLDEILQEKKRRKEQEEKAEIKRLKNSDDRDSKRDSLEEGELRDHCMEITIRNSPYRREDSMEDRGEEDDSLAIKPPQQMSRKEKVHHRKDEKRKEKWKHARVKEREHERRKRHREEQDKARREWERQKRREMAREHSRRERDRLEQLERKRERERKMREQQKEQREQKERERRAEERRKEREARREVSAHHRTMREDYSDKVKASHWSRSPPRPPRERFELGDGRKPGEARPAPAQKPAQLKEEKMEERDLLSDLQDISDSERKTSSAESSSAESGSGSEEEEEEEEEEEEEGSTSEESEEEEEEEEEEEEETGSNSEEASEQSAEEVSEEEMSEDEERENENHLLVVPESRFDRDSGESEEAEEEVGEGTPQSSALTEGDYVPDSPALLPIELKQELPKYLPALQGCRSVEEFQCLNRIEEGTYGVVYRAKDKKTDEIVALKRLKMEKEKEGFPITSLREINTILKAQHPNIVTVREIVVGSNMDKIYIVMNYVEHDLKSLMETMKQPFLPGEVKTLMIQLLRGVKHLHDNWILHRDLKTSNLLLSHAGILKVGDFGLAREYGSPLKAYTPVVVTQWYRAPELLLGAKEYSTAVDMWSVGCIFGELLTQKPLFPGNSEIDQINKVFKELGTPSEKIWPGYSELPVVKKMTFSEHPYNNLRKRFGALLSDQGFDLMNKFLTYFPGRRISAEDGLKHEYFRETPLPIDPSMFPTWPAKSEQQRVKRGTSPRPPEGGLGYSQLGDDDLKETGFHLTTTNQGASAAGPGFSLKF

[1] = average of replicates, read-out: Inhibition at 10µM (%) Average
[2] = read-out: Inhibition at 10µM (%) Replicate 1
[3] = read-out: Inhibition at 10µM (%) Replicate 2
[4] = n=3 average ± SEM, n=2 average to 2 significant figures, read-out: IC50 (nM) Average*
[5] = read-out: IC50 (nM) Replicate 1
[6] = read-out: IC50 (nM) Replicate 2
[7] = read-out: IC50 (nM) Replicate 3

CDK12/Cyclin K, sequence (Q9NYV4 1-1481 isoform Q9NYV4-2): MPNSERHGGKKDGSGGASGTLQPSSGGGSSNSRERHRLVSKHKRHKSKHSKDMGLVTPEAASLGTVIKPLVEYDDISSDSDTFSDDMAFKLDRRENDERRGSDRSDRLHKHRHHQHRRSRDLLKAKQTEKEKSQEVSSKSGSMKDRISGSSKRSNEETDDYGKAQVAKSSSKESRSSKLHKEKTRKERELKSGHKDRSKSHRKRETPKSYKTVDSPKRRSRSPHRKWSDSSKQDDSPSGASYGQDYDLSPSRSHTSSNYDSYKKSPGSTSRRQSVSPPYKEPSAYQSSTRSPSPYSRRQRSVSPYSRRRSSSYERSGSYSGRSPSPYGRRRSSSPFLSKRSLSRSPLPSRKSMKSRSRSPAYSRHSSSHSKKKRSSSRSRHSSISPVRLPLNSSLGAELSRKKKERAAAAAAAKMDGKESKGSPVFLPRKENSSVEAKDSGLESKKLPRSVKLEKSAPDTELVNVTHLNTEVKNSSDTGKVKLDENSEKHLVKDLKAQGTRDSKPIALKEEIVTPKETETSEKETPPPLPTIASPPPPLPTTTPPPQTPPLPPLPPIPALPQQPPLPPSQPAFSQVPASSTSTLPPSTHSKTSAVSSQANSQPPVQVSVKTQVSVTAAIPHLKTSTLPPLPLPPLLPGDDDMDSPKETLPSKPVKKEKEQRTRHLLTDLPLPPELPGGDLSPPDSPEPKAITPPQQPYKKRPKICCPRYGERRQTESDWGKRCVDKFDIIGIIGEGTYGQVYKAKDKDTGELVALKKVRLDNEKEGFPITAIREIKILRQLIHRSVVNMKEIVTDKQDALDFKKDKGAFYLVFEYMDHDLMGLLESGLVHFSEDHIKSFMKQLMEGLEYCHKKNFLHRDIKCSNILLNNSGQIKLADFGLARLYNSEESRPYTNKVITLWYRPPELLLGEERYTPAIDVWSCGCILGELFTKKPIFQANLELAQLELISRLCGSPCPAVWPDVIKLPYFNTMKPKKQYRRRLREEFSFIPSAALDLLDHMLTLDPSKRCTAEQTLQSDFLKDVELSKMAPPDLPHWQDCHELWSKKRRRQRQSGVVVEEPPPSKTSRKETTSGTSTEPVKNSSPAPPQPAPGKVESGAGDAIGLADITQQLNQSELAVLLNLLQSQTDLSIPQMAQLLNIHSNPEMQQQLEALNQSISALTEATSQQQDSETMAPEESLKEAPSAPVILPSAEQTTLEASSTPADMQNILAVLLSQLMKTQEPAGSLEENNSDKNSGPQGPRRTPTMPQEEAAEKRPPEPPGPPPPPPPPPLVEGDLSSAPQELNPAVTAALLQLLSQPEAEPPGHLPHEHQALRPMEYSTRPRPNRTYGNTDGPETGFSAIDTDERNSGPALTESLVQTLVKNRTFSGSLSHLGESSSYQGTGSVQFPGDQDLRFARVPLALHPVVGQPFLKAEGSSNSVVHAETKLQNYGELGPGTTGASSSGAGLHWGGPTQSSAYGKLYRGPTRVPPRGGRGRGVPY
CDK12/Cyclin K, sequence (O75909 whole entry partner): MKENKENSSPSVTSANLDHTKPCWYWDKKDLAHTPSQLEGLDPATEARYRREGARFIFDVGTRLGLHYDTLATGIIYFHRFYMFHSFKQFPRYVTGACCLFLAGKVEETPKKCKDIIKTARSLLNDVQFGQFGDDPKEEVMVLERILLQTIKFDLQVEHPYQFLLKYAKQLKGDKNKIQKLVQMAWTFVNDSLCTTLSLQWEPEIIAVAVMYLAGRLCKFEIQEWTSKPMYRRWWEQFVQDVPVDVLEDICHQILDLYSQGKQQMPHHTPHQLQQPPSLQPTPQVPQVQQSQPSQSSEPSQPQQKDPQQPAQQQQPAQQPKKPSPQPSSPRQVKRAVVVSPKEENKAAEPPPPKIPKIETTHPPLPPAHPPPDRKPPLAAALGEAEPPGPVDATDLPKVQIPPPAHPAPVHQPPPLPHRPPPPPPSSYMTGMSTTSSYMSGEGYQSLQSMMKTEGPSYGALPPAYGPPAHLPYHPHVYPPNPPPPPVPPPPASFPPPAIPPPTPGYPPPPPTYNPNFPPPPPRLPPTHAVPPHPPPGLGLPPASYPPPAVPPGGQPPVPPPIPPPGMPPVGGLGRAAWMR
CDK13/Cyclin K, sequence (O75909 whole entry): as the sequence (O75909 whole entry partner) above
CDK13/Cyclin K, sequence (Q14004 other isoform, or with tags, fused parts or gaps): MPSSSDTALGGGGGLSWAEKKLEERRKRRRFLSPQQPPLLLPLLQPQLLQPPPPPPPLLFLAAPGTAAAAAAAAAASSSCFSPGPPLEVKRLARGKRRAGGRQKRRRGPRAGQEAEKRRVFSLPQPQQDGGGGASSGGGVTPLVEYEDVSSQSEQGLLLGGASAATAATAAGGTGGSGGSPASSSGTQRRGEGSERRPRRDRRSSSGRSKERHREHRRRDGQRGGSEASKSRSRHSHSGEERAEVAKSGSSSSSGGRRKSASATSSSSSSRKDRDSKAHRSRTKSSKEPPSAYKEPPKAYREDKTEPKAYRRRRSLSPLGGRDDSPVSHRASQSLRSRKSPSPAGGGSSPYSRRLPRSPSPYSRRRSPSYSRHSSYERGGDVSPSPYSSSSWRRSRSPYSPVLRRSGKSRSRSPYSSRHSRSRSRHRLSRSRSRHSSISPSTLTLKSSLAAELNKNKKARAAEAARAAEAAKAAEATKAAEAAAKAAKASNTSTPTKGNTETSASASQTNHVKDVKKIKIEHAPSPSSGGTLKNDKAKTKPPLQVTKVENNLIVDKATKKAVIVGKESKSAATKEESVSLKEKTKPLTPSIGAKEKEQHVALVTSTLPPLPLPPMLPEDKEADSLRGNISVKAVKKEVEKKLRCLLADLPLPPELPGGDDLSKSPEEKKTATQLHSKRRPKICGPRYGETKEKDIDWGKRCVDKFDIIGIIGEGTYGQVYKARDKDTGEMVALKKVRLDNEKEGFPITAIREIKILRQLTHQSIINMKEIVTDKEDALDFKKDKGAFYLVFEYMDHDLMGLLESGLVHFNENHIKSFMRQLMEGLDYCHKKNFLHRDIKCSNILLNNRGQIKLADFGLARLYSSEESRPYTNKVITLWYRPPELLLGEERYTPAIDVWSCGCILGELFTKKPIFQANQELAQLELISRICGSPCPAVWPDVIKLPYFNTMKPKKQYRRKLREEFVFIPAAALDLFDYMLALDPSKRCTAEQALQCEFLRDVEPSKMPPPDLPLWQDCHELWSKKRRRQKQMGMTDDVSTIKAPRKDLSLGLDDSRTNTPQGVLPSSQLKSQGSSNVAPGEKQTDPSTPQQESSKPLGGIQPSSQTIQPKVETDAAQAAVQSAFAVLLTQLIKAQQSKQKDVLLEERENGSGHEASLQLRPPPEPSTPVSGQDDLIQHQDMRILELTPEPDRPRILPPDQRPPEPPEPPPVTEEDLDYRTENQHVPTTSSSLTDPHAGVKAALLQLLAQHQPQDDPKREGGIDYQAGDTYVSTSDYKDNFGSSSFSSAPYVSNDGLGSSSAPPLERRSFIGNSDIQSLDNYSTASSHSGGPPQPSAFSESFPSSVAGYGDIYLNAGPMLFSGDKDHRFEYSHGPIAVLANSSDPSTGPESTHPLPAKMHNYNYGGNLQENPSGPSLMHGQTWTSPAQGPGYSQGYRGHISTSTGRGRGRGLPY
CDK19/Cyclin C, sequence (Q9BWU1 whole entry): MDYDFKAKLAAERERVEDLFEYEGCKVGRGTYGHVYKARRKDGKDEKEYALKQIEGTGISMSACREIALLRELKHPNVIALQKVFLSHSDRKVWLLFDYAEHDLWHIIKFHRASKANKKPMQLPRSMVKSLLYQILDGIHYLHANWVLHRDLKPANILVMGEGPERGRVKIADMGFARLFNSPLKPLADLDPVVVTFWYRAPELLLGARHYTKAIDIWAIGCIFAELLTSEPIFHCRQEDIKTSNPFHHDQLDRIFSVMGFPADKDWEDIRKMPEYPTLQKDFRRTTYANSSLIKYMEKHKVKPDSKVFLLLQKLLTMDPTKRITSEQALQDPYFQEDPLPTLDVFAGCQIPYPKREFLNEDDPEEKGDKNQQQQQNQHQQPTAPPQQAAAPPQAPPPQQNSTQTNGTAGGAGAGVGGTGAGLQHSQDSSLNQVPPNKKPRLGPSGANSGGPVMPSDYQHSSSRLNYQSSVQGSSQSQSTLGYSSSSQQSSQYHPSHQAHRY
CDK19/Cyclin C, sequence (P24863 whole entry partner): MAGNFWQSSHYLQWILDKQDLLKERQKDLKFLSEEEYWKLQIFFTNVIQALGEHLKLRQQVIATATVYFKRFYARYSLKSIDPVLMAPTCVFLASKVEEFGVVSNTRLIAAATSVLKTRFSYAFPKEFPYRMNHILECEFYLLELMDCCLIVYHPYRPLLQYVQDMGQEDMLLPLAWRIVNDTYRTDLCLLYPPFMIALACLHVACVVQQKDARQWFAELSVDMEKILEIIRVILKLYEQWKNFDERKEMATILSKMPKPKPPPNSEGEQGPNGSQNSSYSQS
CDK9/Cyclin K, sequence (P50750 whole entry): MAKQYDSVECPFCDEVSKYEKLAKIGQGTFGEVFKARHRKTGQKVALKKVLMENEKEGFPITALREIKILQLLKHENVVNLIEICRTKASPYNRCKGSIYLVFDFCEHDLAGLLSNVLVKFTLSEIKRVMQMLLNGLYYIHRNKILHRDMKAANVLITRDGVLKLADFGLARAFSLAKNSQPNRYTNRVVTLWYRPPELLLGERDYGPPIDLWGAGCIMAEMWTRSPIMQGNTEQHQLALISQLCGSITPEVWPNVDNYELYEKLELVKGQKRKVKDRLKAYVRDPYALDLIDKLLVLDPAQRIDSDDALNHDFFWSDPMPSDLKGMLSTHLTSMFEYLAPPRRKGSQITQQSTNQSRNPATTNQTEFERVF
CDK9/Cyclin K, sequence (O75909 whole entry partner): as the sequence (O75909 whole entry partner) above

CCCCOc1c(C(=O)c2c(F)cc(C)cc2F)c[nH]c2nncc1-2 [BMS-265246]
inhibition at 10 µM (CDK11B/Cyclin L2; [1]): 11.8%
inhibition at 10 µM (CDK11B/Cyclin L2; [2]): 9.8%
inhibition at 10 µM (CDK11B/Cyclin L2; [3]): 13.8%
inhibition at 10 µM (CDK13/Cyclin K; [1]): 12.6%
inhibition at 10 µM (CDK13/Cyclin K; [2]): 10.5%
inhibition at 10 µM (CDK13/Cyclin K; [3]): 14.7%
inhibition at 10 µM (CDK10/Cyclin L2; read-out: Inhibition at 10µM (%) Average, CDK10/L2, average of replicates): 11.1%
inhibition at 10 µM (CDK10/Cyclin L2; read-out: Inhibition at 10µM (%) Replicate 1, CDK10/L2): 5.3%
inhibition at 10 µM (CDK10/Cyclin L2; read-out: Inhibition at 10µM (%) Replicate 2, CDK10/L2): 17%
inhibition at 10 µM (CDK8/Cyclin C; CDK8/C, average of replicates, read-out: Inhibition at 10µM (%) Average): 95.1%
inhibition at 10 µM (CDK8/Cyclin C; CDK8/C, read-out: Inhibition at 10µM (%) Replicate 1): 97.6%
inhibition at 10 µM (CDK8/Cyclin C; CDK8/C, read-out: Inhibition at 10µM (%) Replicate 2): 92.5%
IC50 (CDK8/Cyclin C; CDK8/C, read-out: IC50 (nM) Replicate 1): 1.2 nM
IC50 (CDK8/Cyclin C; CDK8/C, read-out: IC50 (nM) Replicate 2): 0.45 nM
IC50 (CDK8/Cyclin C; CDK8/C, read-out: IC50 (nM) Replicate 3): 0.5 nM
IC50 (CDK8/Cyclin C; live HEK-293, 2 h, mean ± S.E.M. (n=3) or mean (n=2), read-out: IC50 for CDK/cyclin complexes, CDK8/C): 0.7 nM
Kd (CDK8/Cyclin C; live HEK-293, read-out: Kd-apparent, CDK8 live-cell occupancy): < 2 nM
inhibition at 10 µM (CDK16/Cyclin Y; [2]): 70.8%
inhibition at 10 µM (CDK16/Cyclin Y; [3]): 76.5%
IC50 (CDK16/Cyclin Y; [4]): 50 ± 20 nM
IC50 (CDK16/Cyclin Y; [5]): 5.7 nM
IC50 (CDK16/Cyclin Y; [6]): 63 nM
IC50 (CDK16/Cyclin Y; [7]): 79 nM
inhibition at 10 µM (CDK1/Cyclin E1; [1]): 44.4%
inhibition at 10 µM (CDK1/Cyclin E1; [2]): 65.6%
inhibition at 10 µM (CDK1/Cyclin E1; [3]): 23.1%
IC50 (CDK1/Cyclin E1; [4]): 50 ± 20 nM
IC50 (CDK1/Cyclin E1; [5]): 95 nM
IC50 (CDK1/Cyclin E1; [6]): 39 nM
IC50 (CDK1/Cyclin E1; [7]): 11 nM
inhibition at 10 µM (CDK9/Cyclin K; [1]): 26.1%
inhibition at 10 µM (CDK9/Cyclin K; [2]): 31%
inhibition at 10 µM (CDK9/Cyclin K; [3]): 21.3%
inhibition at 10 µM (CDK3/Cyclin E1; CDK3/E1, average of replicates, read-out: Inhibition at 10µM (%) Average): 74%
inhibition at 10 µM (CDK3/Cyclin E1; CDK3/E1, read-out: Inhibition at 10µM (%) Replicate 1): 81.9%
inhibition at 10 µM (CDK3/Cyclin E1; CDK3/E1, read-out: Inhibition at 10µM (%) Replicate 2): 66%
IC50 (CDK3/Cyclin E1; CDK3/E1, read-out: IC50 (nM) Replicate 1): 6.5 nM
IC50 (CDK3/Cyclin E1; CDK3/E1, read-out: IC50 (nM) Replicate 2): 14 nM
IC50 (CDK3/Cyclin E1; CDK3/E1, read-out: IC50 (nM) Replicate 3): 9.2 nM
IC50 (CDK3/Cyclin E1; live HEK-293, 2 h, mean ± S.E.M. (n=3) or mean (n=2), read-out: IC50 for CDK/cyclin complexes, CDK3/E1): 10 nM
inhibition at 10 µM (CDK2/Cyclin E1; [1]): 80.1%
inhibition at 10 µM (CDK2/Cyclin E1; [2]): 77.4%
inhibition at 10 µM (CDK2/Cyclin E1; [3]): 82.8%
IC50 (CDK2/Cyclin E1; [4]): 22 ± 8 nM
IC50 (CDK2/Cyclin E1; [5]): 29 nM
IC50 (CDK2/Cyclin E1; [6]): 31 nM
IC50 (CDK2/Cyclin E1; [7]): 6.6 nM
inhibition at 10 µM (CDK14/Cyclin Y; [1]): 43.5%
inhibition at 10 µM (CDK14/Cyclin Y; [2]): 68.1%
inhibition at 10 µM (CDK14/Cyclin Y; [3]): 18.8%
IC50 (CDK14/Cyclin Y; [4]): 200 ± 200 nM
IC50 (CDK14/Cyclin Y; [5]): 10 nM
IC50 (CDK14/Cyclin Y; [6]): 100 nM
IC50 (CDK14/Cyclin Y; [7]): 570 nM
inhibition at 10 µM (CDK15/Cyclin Y; [1]): 35.1%
inhibition at 10 µM (CDK15/Cyclin Y; [2]): 51.3%
inhibition at 10 µM (CDK15/Cyclin Y; [3]): 19%
inhibition at 10 µM (CDK20/Cyclin H; [2]): 14.5%
inhibition at 10 µM (CDK20/Cyclin H; [3]): -14.1%
inhibition at 10 µM (CDK5/CDK5R1; [1]): 35.1%
inhibition at 10 µM (CDK5/CDK5R1; [2]): 36.3%
inhibition at 10 µM (CDK5/CDK5R1; [3]): 33.9%
inhibition at 10 µM (CDK17/Cyclin Y; [1]): 75.2%
inhibition at 10 µM (CDK17/Cyclin Y; [2]): 71.1%
inhibition at 10 µM (CDK17/Cyclin Y; [3]): 79.2%
inhibition at 10 µM (CDK12/Cyclin K; [1]): 5.2%
inhibition at 10 µM (CDK12/Cyclin K; [2]): 12.3%
inhibition at 10 µM (CDK12/Cyclin K; [3]): -1.9%
inhibition at 10 µM (CDK4/Cyclin D1; [1]): 49.1%
inhibition at 10 µM (CDK4/Cyclin D1; [2]): 49%
inhibition at 10 µM (CDK4/Cyclin D1; [3]): 49.3%
inhibition at 10 µM (CDK7; [1]): 43.7%
inhibition at 10 µM (CDK7; [2]): 21%
inhibition at 10 µM (CDK7; [3]): 66.3%
IC50 (CDK7; [4]): 180 ± 10 nM
IC50 (CDK7; [5]): 160 nM
IC50 (CDK7; [6]): 170 nM
IC50 (CDK7; [7]): 197 nM
Kd (CDK19/Cyclin C): < 2 nM
IC50 (CDK19/Cyclin C; IC50 (nM) Average*, CDK19/Y, n=3 average ± SEM, n=2 average to 2 significant figures): 1.47 ± 0.09 nM
IC50 (CDK19/Cyclin C; IC50 (nM) Replicate 2, CDK19/C): 1.6 nM
IC50 (CDK19/Cyclin C; IC50 (nM) Replicate 3, CDK19/C): 1.3 nM
IC50 (CDK19/Cyclin C; IC50 for CDK/cyclin complexes, CDK19/C, live HEK-293, 2 h, mean ± S.E.M. (n=3) or mean (n=2)): 1.5 nM
inhibition at 10 µM (CDK19/Cyclin C; read-out: Inhibition at 10µM (%) Average, CDK19/C, average of replicates): 95.1%
inhibition at 10 µM (CDK19/Cyclin C; read-out: Inhibition at 10µM (%) Replicate 1, CDK19/C): 98.1%
inhibition at 10 µM (CDK19/Cyclin C; read-out: Inhibition at 10µM (%) Replicate 2, CDK19/C): 92.2%
inhibition at 10 µM (CDK11A/Cyclin L2; [1]): 8.4%
inhibition at 10 µM (CDK11A/Cyclin L2; [2]): 3.6%
inhibition at 10 µM (CDK11A/Cyclin L2; [3]): 13.2%
